{
  "source": "the supplement of paper PMC10733146",
  "test_in_all_cases": "viability relative to DMSO control (fraction); higher = less drug effect (more viable cells)",
  "conditions_in_all_cases": "48 h",
  "key": {"[1]": {"tested_on": "primary AML patient cells (S006)", "procedure,_shortened": "(§1)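 Using 384-well plates with compounds already plated at five concentrations, one well per concentration, 4 × 10^4 primary mononuclear tumour cells were added per well. Cells were Ficoll-isolated from blood or bone marrow or came from processed lymph node, fresh or cryopreserved. They were kept for 48 h at 37 °C and 5% CO2 in RPMI-1640 supplemented with penicillin/streptomycin, L-glutamine and human serum, and viability was read as CellTiter-Glo luminescence relative to the median of 16 inner DMSO wells.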"}, "[2]": {"tested_on": "primary BL patient cells (S005)", "procedure,_shortened": "as §1"}, "[3]": {"tested_on": "primary ALL patient cells (S048)", "procedure,_shortened": "as §1"}, "[4]": {"tested_on": "primary AML patient cells (S012)", "procedure,_shortened": "as §1"}, "[5]": {"tested_on": "primary AML patient cells (S025)", "procedure,_shortened": "as §1"}, "[6]": {"tested_on": "primary MCL patient cells (S063)", "procedure,_shortened": "as §1"}, "[7]": {"tested_on": "primary AML patient cells (S056)", "procedure,_shortened": "as §1"}, "[8]": {"tested_on": "primary AML patient cells (S079)", "procedure,_shortened": "as §1"}, "[9]": {"tested_on": "primary AML patient cells (S021)", "procedure,_shortened": "as §1"}, "[10]": {"tested_on": "primary AML patient cells (S002)", "procedure,_shortened": "as §1"}, "[11]": {"tested_on": "primary MCL patient cells (S053)", "procedure,_shortened": "as §1"}, "[12]": {"tested_on": "primary AML patient cells (S072)", "procedure,_shortened": "as §1"}, "[13]": {"tested_on": "primary FL patient cells (S022)", "procedure,_shortened": "as §1"}, "[14]": {"tested_on": "primary MCL patient cells (S068)", "procedure,_shortened": "as §1"}, "[15]": {"tested_on": "primary AML patient cells (S017)", "procedure,_shortened": "as §1"}, "[16]": {"tested_on": "primary CLL patient cells (S043)", "procedure,_shortened": "as §1"}, "[17]": {"tested_on": "primary T-PLL patient cells (S008)", "procedure,_shortened": "as §1"}, "[18]": {"tested_on": "primary AML patient cells (S055)", "procedure,_shortened": "as §1"}, "[19]": {"tested_on": "primary AML patient cells (S009)", "procedure,_shortened": "as §1"}, "[20]": {"tested_on": "primary AML patient cells (S081)", "procedure,_shortened": "as §1"}},
  "data": [
    {"compound": "COc1cccc2c1C(=O)c1c(O)c3c(c(O)c1C2=O)C[C@@](O)(C(C)=O)C[C@@H]3O[C@H]1C[C@H](N)[C@H](O)[C@H](C)O1", "note": "[Daunorubicin]", "values": [
      {"measurement": "viability", "setting": "[1]; 0.0016 µM", "result": 1.19},
      {"measurement": "viability", "setting": "[1]; 0.008 µM", "result": 0.923},
      {"measurement": "viability", "setting": "[1]; 0.04 µM", "result": 0.248},
      {"measurement": "viability", "setting": "[1]; 0.2 µM", "result": 0.075},
      {"measurement": "viability", "setting": "[1]; 1 µM", "result": 0.0282},
      {"measurement": "viability", "setting": "[2]; 0.0016 µM", "result": 1.06},
      {"measurement": "viability", "setting": "[2]; 0.008 µM", "result": 1.09},
      {"measurement": "viability", "setting": "[2]; 0.04 µM", "result": 1.02},
      {"measurement": "viability", "setting": "[2]; 0.2 µM", "result": 0.929},
      {"measurement": "viability", "setting": "[2]; 1 µM", "result": 0.716},
      {"measurement": "viability", "setting": "[3]; 0.0016 µM", "result": 1.02},
      {"measurement": "viability", "setting": "[3]; 0.008 µM", "result": 0.731},
      {"measurement": "viability", "setting": "[3]; 0.04 µM", "result": 0.12},
      {"measurement": "viability", "setting": "[3]; 0.2 µM", "result": 0.0694},
      {"measurement": "viability", "setting": "[3]; 1 µM", "result": 0.0144},
      {"measurement": "viability", "setting": "[4]; 0.0016 µM", "result": 1},
      {"measurement": "viability", "setting": "[4]; 0.008 µM", "result": 1.01},
      {"measurement": "viability", "setting": "[4]; 0.04 µM", "result": 0.968},
      {"measurement": "viability", "setting": "[4]; 0.2 µM", "result": 0.922},
      {"measurement": "viability", "setting": "[4]; 1 µM", "result": 0.083},
      {"measurement": "viability", "setting": "[5]; 0.0016 µM", "result": 1.03},
      {"measurement": "viability", "setting": "[5]; 0.008 µM", "result": 0.784},
      {"measurement": "viability", "setting": "[5]; 0.04 µM", "result": 0.453},
      {"measurement": "viability", "setting": "[5]; 0.2 µM", "result": 0.431},
      {"measurement": "viability", "setting": "[5]; 1 µM", "result": 0.0369},
      {"measurement": "viability", "setting": "[6]; 0.0016 µM", "result": 1.2},
      {"measurement": "viability", "setting": "[6]; 0.008 µM", "result": 1.14},
      {"measurement": "viability", "setting": "[6]; 0.04 µM", "result": 0.979},
      {"measurement": "viability", "setting": "[6]; 0.2 µM", "result": 0.528},
      {"measurement": "viability", "setting": "[6]; 1 µM", "result": 0.0178},
      {"measurement": "viability", "setting": "[7]; 0.0016 µM", "result": 0.96},
      {"measurement": "viability", "setting": "[7]; 0.008 µM", "result": 0.881},
      {"measurement": "viability", "setting": "[7]; 0.04 µM", "result": 0.258},
      {"measurement": "viability", "setting": "[7]; 0.2 µM", "result": 0.146},
      {"measurement": "viability", "setting": "[7]; 1 µM", "result": 0.0683},
      {"measurement": "viability", "setting": "[8]; 0.0016 µM", "result": 1.03},
      {"measurement": "viability", "setting": "[8]; 0.008 µM", "result": 1.08},
      {"measurement": "viability", "setting": "[8]; 0.04 µM", "result": 0.78},
      {"measurement": "viability", "setting": "[8]; 0.2 µM", "result": 0.659},
      {"measurement": "viability", "setting": "[8]; 1 µM", "result": 0.0276},
      {"measurement": "viability", "setting": "[9]; 0.0016 µM", "result": 1.09},
      {"measurement": "viability", "setting": "[9]; 0.008 µM", "result": 0.972},
      {"measurement": "viability", "setting": "[9]; 0.04 µM", "result": 0.424},
      {"measurement": "viability", "setting": "[9]; 0.2 µM", "result": 0.216},
      {"measurement": "viability", "setting": "[9]; 1 µM", "result": 0.145},
      {"measurement": "viability", "setting": "[10]; 0.0016 µM", "result": 1.04},
      {"measurement": "viability", "setting": "[10]; 0.008 µM", "result": 0.983},
      {"measurement": "viability", "setting": "[10]; 0.04 µM", "result": 0.505},
      {"measurement": "viability", "setting": "[10]; 0.2 µM", "result": 0.323},
      {"measurement": "viability", "setting": "[10]; 1 µM", "result": 0.241},
      {"measurement": "viability", "setting": "[11]; 0.0016 µM", "result": 1.12},
      {"measurement": "viability", "setting": "[11]; 0.008 µM", "result": 0.692},
      {"measurement": "viability", "setting": "[11]; 0.04 µM", "result": 0.363},
      {"measurement": "viability", "setting": "[11]; 0.2 µM", "result": 0.307},
      {"measurement": "viability", "setting": "[11]; 1 µM", "result": 0.446},
      {"measurement": "viability", "setting": "[12]; 0.0016 µM", "result": 1.18},
      {"measurement": "viability", "setting": "[12]; 0.008 µM", "result": 1.04},
      {"measurement": "viability", "setting": "[12]; 0.04 µM", "result": 0.844},
      {"measurement": "viability", "setting": "[12]; 0.2 µM", "result": 0.589},
      {"measurement": "viability", "setting": "[12]; 1 µM", "result": 0.0642},
      {"measurement": "viability", "setting": "[13]; 0.0016 µM", "result": 0.966},
      {"measurement": "viability", "setting": "[13]; 0.008 µM", "result": 0.964},
      {"measurement": "viability", "setting": "[13]; 0.04 µM", "result": 0.803},
      {"measurement": "viability", "setting": "[13]; 0.2 µM", "result": 0.331},
      {"measurement": "viability", "setting": "[13]; 1 µM", "result": 0.304},
      {"measurement": "viability", "setting": "[14]; 0.0016 µM", "result": 1.18},
      {"measurement": "viability", "setting": "[14]; 0.008 µM", "result": 0.943},
      {"measurement": "viability", "setting": "[14]; 0.04 µM", "result": 0.449},
      {"measurement": "viability", "setting": "[14]; 0.2 µM", "result": 0.252},
      {"measurement": "viability", "setting": "[14]; 1 µM", "result": 0.0233},
      {"measurement": "viability", "setting": "[15]; 0.0016 µM", "result": 1.1},
      {"measurement": "viability", "setting": "[15]; 0.008 µM", "result": 1.13},
      {"measurement": "viability", "setting": "[15]; 0.04 µM", "result": 1.07},
      {"measurement": "viability", "setting": "[15]; 0.2 µM", "result": 0.745},
      {"measurement": "viability", "setting": "[15]; 1 µM", "result": 0.0449},
      {"measurement": "viability", "setting": "[16]; 0.0016 µM", "result": 1.11},
      {"measurement": "viability", "setting": "[16]; 0.008 µM", "result": 1.12},
      {"measurement": "viability", "setting": "[16]; 0.04 µM", "result": 0.834},
      {"measurement": "viability", "setting": "[16]; 0.2 µM", "result": 0.33},
      {"measurement": "viability", "setting": "[16]; 1 µM", "result": 0.0261},
      {"measurement": "viability", "setting": "[17]; 0.0016 µM", "result": 1.08},
      {"measurement": "viability", "setting": "[17]; 0.008 µM", "result": 1.09},
      {"measurement": "viability", "setting": "[17]; 0.04 µM", "result": 0.947},
      {"measurement": "viability", "setting": "[17]; 0.2 µM", "result": 0.82},
      {"measurement": "viability", "setting": "[17]; 1 µM", "result": 0.0568},
      {"measurement": "viability", "setting": "[18]; 0.0016 µM", "result": 1.03},
      {"measurement": "viability", "setting": "[18]; 0.008 µM", "result": 1.05},
      {"measurement": "viability", "setting": "[18]; 0.04 µM", "result": 0.991},
      {"measurement": "viability", "setting": "[18]; 0.2 µM", "result": 0.904},
      {"measurement": "viability", "setting": "[18]; 1 µM", "result": 0.0407},
      {"measurement": "viability", "setting": "[19]; 0.0016 µM", "result": 1.1},
      {"measurement": "viability", "setting": "[19]; 0.008 µM", "result": 0.833},
      {"measurement": "viability", "setting": "[19]; 0.04 µM", "result": 0.722},
      {"measurement": "viability", "setting": "[19]; 0.2 µM", "result": 0.378},
      {"measurement": "viability", "setting": "[19]; 1 µM", "result": 0.0702},
      {"measurement": "viability", "setting": "[20]; 0.0016 µM", "result": 1.07},
      {"measurement": "viability", "setting": "[20]; 0.008 µM", "result": 1.16},
      {"measurement": "viability", "setting": "[20]; 0.04 µM", "result": 1.15},
      {"measurement": "viability", "setting": "[20]; 0.2 µM", "result": 1.2},
      {"measurement": "viability", "setting": "[20]; 1 µM", "result": 0.0266}
    ]}
  ]
}
